Test results: US4255575A, “2-Hydroxy-5-(1-hydroxy-2-piperazinylethyl)-benzoic acid derivatives” (priority 1979, dated 1981)

What was measured:
[1] = target: T1, β-adrenergic receptor (Cavia porcellus, UniProt H0W3H1); test: β-adrenergic receptor blocking activity in vitro, isolated guinea pig atria, isoproterenol agonist; format: cell-based; details: for Kb: read-out: pA2 β (converted)
T1 construct: isolated guinea pig atria preparation; from tissue; host or cells: isolated guinea pig atria
Protocol: (§1) α-Adrenergic receptor blocking activity is determined in vitro by performing cumulative dose-response experiments in the isolated rabbit aortic strip preparation using norepinephrine as the agonist. The contractile response of the rabbit strip preparation in the presence of logarithmically increasing concentrations of the compounds being tested are expressed as percent of the maximal attainable […]. Relative antagonistic potency is expressed as a pA2 value.
β-Adrenergic receptor blocking activity is determined in vitro by performing cumulative dose-response experiments in the isolated guinea pig atria preparation using isoproterenol as the agonist. The response (increase in rate) of the guinea pig atria preparation in the presence of logarithmically increasing concentrations of the compounds being tested are expressed as percent of the maximal attainable response. Relative antagonistic potency is expressed as a pA2 value, as defined above.

[2] = test system: guinea pig ileum; test: direct spasmolytic activity in vitro, isolated guinea pig ileum, barium chloride agonist; format: cell-based
Protocol: as §1, with “value. […] Direct spasmolytic activity is determined in vitro by performing cumulative dose response experiments in the isolated guinea pig ileum preparation using barium chloride as the agonist. The contractile response of the guinea pig ileum preparation in the presence of logarithmically increasing concentrations of the compounds being tested are expressed as percent of the maximal attainable response. Relative antagonistic potency is expressed as a pA2 value, as defined above.” for “value.”

[3] = test system: α-adrenergic receptor; test: α-adrenergic receptor blocking activity in vitro, isolated rabbit aortic strip, norepinephrine agonist; format: cell-based
Protocol: as §1

[4] = test system: β-adrenergic receptor (β2); test: β-adrenergic receptor blocking activity in vivo, isoproterenol agonist, decrease in diastolic blood pressure (β2); details: anesthetized dog, iv
Protocol: (§2) α-Adrenergic receptor blocking activity is determined in vivo by performing cumulative dose-response experiments in the anesthetized dog using phenylephrine as the agonist. The increase in diastolic blood pressure produced by phenylephrine is determined in the absence and again in the presence of logarithmically increasing doses of the test compound. Relative antagonistic potency is expressed as DR10. DR10 is defined as the negative logarithm of the dose of the antagonist which increased by 10 times the dose of agonist necessary to produce 50% of the maximal attainable response. […] Two responses, increase in cardiac rate (β1) and decrease in diastolic blood pressure (β2) are measured.

[5] = test system: β-adrenergic receptor (β1); test: β-adrenergic receptor blocking activity in vivo, isoproterenol agonist, increase in cardiac rate (β1); details: anesthetized dog, iv
Protocol: as §2

[6] = test system: spontaneously hypertensive rats (SHR); test: antihypertensive activity in spontaneously hypertensive rats, systolic blood pressure; format: in vivo, rat; details: 50 mg/kg per os
Protocol: Antihypertensive activity is determined in spontaneously hypertensive rats (SHR) of the Okomoto-Aoki strain. Systolic blood pressure of the SHR is measured from the caudal artery by means of an indirect method utilizing a photocell transducer/tail cuff occluder system. Time response relationships are determined for each compound following an oral dose of 50 mg/kg. Data are expressed as mm of Hg decrease from control values. Statistical significance is determined using a 2 tailed "t" test comparing drug treatment response values to those obtained from concurrent vehicle treated animals.

[7] = test system: α-adrenergic receptor; test: α-adrenergic receptor blocking activity in vivo, anesthetized dog, phenylephrine agonist; details: iv
Protocol: α-Adrenergic receptor blocking activity is determined in vivo by performing cumulative dose-response experiments in the anesthetized dog using phenylephrine as the agonist. The increase in diastolic blood pressure produced by phenylephrine is determined in the absence and again in the presence of logarithmically increasing doses of the test compound. Relative antagonistic potency is expressed as DR10. DR10 is defined as the negative logarithm of the dose of the antagonist which increased by 10 times the dose of agonist necessary to produce 50% of the maximal attainable response.

T1 sequence (H0W3H1 1-470): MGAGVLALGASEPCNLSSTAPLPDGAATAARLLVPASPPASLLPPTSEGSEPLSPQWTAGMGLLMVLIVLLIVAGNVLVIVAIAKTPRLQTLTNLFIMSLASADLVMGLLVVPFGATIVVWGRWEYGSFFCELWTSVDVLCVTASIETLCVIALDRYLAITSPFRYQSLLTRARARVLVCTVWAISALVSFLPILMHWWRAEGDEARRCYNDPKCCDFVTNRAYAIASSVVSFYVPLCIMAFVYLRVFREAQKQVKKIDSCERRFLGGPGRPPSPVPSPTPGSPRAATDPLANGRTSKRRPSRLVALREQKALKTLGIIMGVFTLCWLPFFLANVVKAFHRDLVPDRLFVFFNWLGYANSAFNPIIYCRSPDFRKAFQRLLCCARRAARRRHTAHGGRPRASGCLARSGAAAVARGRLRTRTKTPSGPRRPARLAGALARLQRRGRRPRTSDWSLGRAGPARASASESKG

Kb [1] [nM] | pA2 β [1] | Compound | pA2 BaCl2 [2] | pA2 α [3] | DR10 (β2), decrease in diastolic blood pressure [4] [mg/kg iv] | DR10 (β1), increase in cardiac rate [5] [mg/kg iv] | Fall in Blood Pressure After: 1 hour [6] [mm Hg] | Fall in Blood Pressure After: 4 hours [6] [mm Hg] | DR10 (α) [7] [mg/kg iv]
162 | – | COC(=O)c1cc(C(O)CN2CCN(c3ccccc3C)CC2)ccc1O.Cl (stereo not drawn) [Compound 1, methyl 2-hydroxy-5-[1-hydroxy-2-[4-(2-methylphenyl)-1-piperazinyl]ethyl]benzoate hydrochloride] | 6.06 | 7.45 | – | – | – | – | –
200 | – | Cc1ccccc1N1CCN(CC(O)c2ccc(O)c(C(N)=O)c2)CC1.Cl (stereo not drawn) [Compound 2, 2-hydroxy-5-[1-hydroxy-2-[4-(2-methylphenyl)-1-piperazinyl]ethyl]benzamide monohydrochloride] | 5.73 | 7.57 | > 10 | 15.3 | 48 | 37 | 1.09
126 | – | Cl.NC(=O)c1cc(C(O)CN2CCN(c3cccc(C(F)(F)F)c3)CC2)ccc1O (stereo not drawn) [Compound 3, 2-hydroxy-5-[1-hydroxy-2-[4-[3-(trifluoromethyl)phenyl]-1-piperazinyl]ethyl]benzamide monohydrochloride] | 5.74 | 6.33 | – | – | – | – | –
1450 | – | COc1ccc(N2CCN(CC(O)c3ccc(O)c(C(N)=O)c3)CC2)cc1.Cl.Cl (stereo not drawn) [Compound 4, 2-hydroxy-5-[1-hydroxy-2-[4-(4-methoxyphenyl)-1-piperazinyl]ethyl]benzamide dihydrochloride] | < 4.28 | 6.13 | – | – | – | – | –
676 | – | Cl.NC(=O)c1cc(C(O)CN2CCN(c3ccc(Cl)cc3)CC2)ccc1O.O (stereo not drawn) [Compound 5, 5-[2-[4-(4-chlorophenyl)-1-piperazinyl]-1-hydroxyethyl]-2-hydroxybenzamide monohydrochloride, monohydrate] | 4.58 | 6.87 | – | – | 49 | 56 | –
– | stimulant | Cl.NC(=O)c1cc(C(O)CN2CCN(c3ccccc3)CC2)ccc1O.O (stereo not drawn) [Compound 6, 2-hydroxy-5-[1-hydroxy-2-(4-phenyl-1-piperazinyl)ethyl]benzamide monohydrochloride hydrate] | 4.19 | 7.04 | – | – | – | – | –
363 | – | COc1ccccc1N1CCN(CC(O)c2ccc(O)c(C(N)=O)c2)CC1.Cl (stereo not drawn) [Compound 7, 2-hydroxy-5-[1-hydroxy-2-[4-(2-methoxyphenyl)-1-piperazinyl]ethyl]benzamide monohydrochloride] | 4.87 | 7.42 | – | – | 45 | 35 | –
4270 | – | Cl.NC(=O)c1cc(C(O)CN2CCN(c3ccccn3)CC2)ccc1O.O (stereo not drawn) [Compound 8, 2-hydroxy-5-[1-hydroxy-2-[4-(2-pyridinyl)-1-piperazinyl]ethyl]benzamide monohydrochloride hydrate] | 3.90 | 6.08 | – | – | – | – | –
6760 | – | CNC(=O)c1cc(C(O)CN2CCN(c3ccc(OC)cc3)CC2)ccc1O.Cl.O (stereo not drawn) [Compound 9, 2-hydroxy-5-[1-hydroxy-2-[4-(4-methoxyphenyl)-1-piperazinyl]ethyl]-N-methylbenzamide monohydrochloride hydrate] | 4.82 | 5.47 | – | – | – | – | –
– | stimulant | CNC(=O)c1cc(C(O)CN2CCN(c3ccccc3OC)CC2)ccc1O.Cl.O (stereo not drawn) [Compound 10, 2-hydroxy-5-[1-hydroxy-2-[4-(2-methoxyphenyl)-1-piperazinyl]ethyl]-N-methylbenzamide monohydrochloride monohydrate] | 5.02 | 7.95 | – | – | 44 | 52 | –
468 | – | Cc1ccccc1N1CCN(CC(O)c2ccc(O)c(C(=O)NCC(C)(C)C)c2)CC1.Cl (stereo not drawn) [Compound 11, N-(2,2-dimethylpropyl)-2-hydroxy-5-[1-hydroxy-2-[4-(2-methylphenyl)-1-piperazinyl]ethyl]benzamide monohydrochloride] | 6.65 | 7.21 | – | – | 41 | 32 | –
> 10000 | – | COc1ccc(C(O)CN2CCN(c3ccccc3)CC2)cc1C(N)=O.Cl (stereo not drawn) [Compound 12, 5-[1-hydroxy-2-(4-phenyl-1-piperazinyl)ethyl]-2-methoxybenzamide monohydrochloride] | 4.19 | 6.54 | – | – | 33 | 25 | –
5370 | – | CCOc1ccc(C(O)CN2CCN(c3ccccc3)CC2)cc1C(N)=O.Cl (stereo not drawn) [Compound 13, 2-ethoxy-5-[1-hydroxy-2-(4-phenyl-1-piperazinyl)ethyl]benzamide monohydrochloride] | 4.67 | 6.27 | – | – | – | – | –
724 | – | Cc1ccccc1N1CCN(CC(O)c2ccc(O)c(-c3nnn[nH]3)c2)CC1.Cl.O (stereo not drawn) [Compound 14, α-(4-Hydroxy-3-1H-tetrazol-5-ylphenyl)-4-(2-methylphenyl)-1-piperazineethanol Monohydrochloride Monohydrate] | < 4 | 7.56 | – | – | 48 | – | –
– | stimulant | CC(CCc1ccccc1)NC(C)C(O)c1ccc(O)cc1 (stereo not drawn) [nylidrine, reference compound] | – | – | – | – | – | – | –
– | – | Cc1ccc(N(CC2=NCCN2)c2cccc(O)c2)cc1 [phentolamine, reference compound] | – | – | – | – | – | – | 2.65
